Read-outs that look alike come from different tables or passages of the source.
Assays:
[1] = rat; for % Dose recovered: 6-CF, oral
in vivo = conditions: Sprague-Dawley, rat, po
Description: Rats were kept on fasting 12 hours before drug administration and until 24 hours post dosing. Water ad libitum was given throughout the study. […] Second, third, fourth, fifth and sixth group received oral administration of chitosan, thiolated chitosan, trimethyl chitosan, CARBOPOL® or METHOCEL® microspheres, respectively. […] Supernatant was collected and acetonitrile was added to precipitate the proteins. The precipitated proteins were settled by centrifugation at 2000 rpm for 15 min. The supernatant was collected and filtered through a 0.45 μm filter into volumetric flask and drug concentration was determined by spectrofluorometric assay.

Erythrocytes = test: Hemolytic toxicity assay; type: cell-based; conditions: 1 hr of incubation at 37°C, water = 100%
Description: The procedure from literature was followed to perform the hemolytic toxicity studies.^19 Blood from healthy donors was collected and anticogulated with 3% sodium citrate. Erythrocytes were separated from blood plasma by centrifugation (3000×g, 5 min) and suspended in phosphate buffer saline (PBS) of pH 7.4. […] 0.5 ml 2% w/v dispersion of microspheres formulations in PBS (pH 7.4) was added to 4.5 ml of normal saline and interacted with 1 ml RBC suspension. […] After 1 hr, mixture was centrifuged and supernatants were taken and diluted with an equal volume of normal saline and absorbance was taken at 540 nm against supernatant of normal saline diluted similarly as blank. The percentage hemolysis was thus determined for each sample by taking absorbance of water as 100% hemolytic sample.

[2] = Acyclovir IR 400 mg single dose; From Ref. 35; cited from earlier work
[3] = oral; cited from earlier work
[4] = In vitro drug release study of microspheres (USP paddle); type: physicochemical; conditions: HCl buffer pH 1.2, first hr
Description: 900 ml of HCl buffer (pH 1.2) was used as dissolution medium for first hr and phosphate buffered saline (PBS, pH 6.8) was used for next 11 hrs. The dried microspheres were filled in hard gelatin capsules and were placed in dissolution vessels. 5 ml sample was withdrawn at various time intervals and volume of the media was replenished with an equal amount of dissolution media. The samples were then analyzed spectroflurometrically.

Question: With `O=C(O)c1ccc2c(c1)C1(OC2=O)c2ccc(O)cc2Oc2cc(O)ccc21` [6-CF solution, 6-Carboxyfluorescein] as the compound, how does the “% Dose recovered” value ([1]; 1. Stomach, 2 hr) read?
Answer: Its value is 52.2%.

Question: What about the “% Dose recovered” value ([1]; 1. Stomach, 6 hr) of the same compound?
Answer: The value was 0%.

Question: What about the “% Dose recovered” value ([1]; 1. Stomach, 8 hr) of the same compound?
Answer: The value was 0%.

Question: What about the “% Dose recovered” value ([1]; 1. Stomach, 10 hr) of the same compound?
Answer: The value was 0%.

Question: And the “% Dose recovered” value ([1]; 2. Duodenum, 2 hr)?
Answer: Its value is 10.9%.

Question: What about the “% Dose recovered” value ([1]; 2. Duodenum, 4 hr) of the same compound?
Answer: Its value is 19.5%.

Question: What about the “% Dose recovered” value ([1]; 2. Duodenum, 6 hr) of the same compound?
Answer: The value was 0%.

Question: And the “% Dose recovered” value ([1]; 2. Duodenum, 8 hr)?
Answer: The value was 0%.

Question: And the “% Dose recovered” value ([1]; 2. Duodenum, 10 hr)?
Answer: Its value is 0%.

Question: And the “% Dose recovered” value ([1]; 3. Jejunum, 2 hr)?
Answer: Its value is 0%.

Question: And the “% Dose recovered” value ([1]; 3. Jejunum, 4 hr)?
Answer: Its value is 10.6%.

Question: And the “% Dose recovered” value ([1]; 3. Jejunum, 6 hr)?
Answer: The value was 0%.

Question: And the “% Dose recovered” value ([1]; 3. Jejunum, 8 hr)?
Answer: The value was 0%.

Question: And the “% Dose recovered” value ([1]; 3. Jejunum, 10 hr)?
Answer: Its value is 0%.

Question: What about the “% Dose recovered” value ([1]; 4. Jejunum, 2 hr) of the same compound?
Answer: Its value is 0%.

Question: What about the “% Dose recovered” value ([1]; 4. Jejunum, 4 hr) of the same compound?
Answer: Its value is 5.8%.

Question: What about the “% Dose recovered” value ([1]; 4. Jejunum, 6 hr) of the same compound?
Answer: Its value is 6.9%.

Question: What about the “% Dose recovered” value ([1]; 4. Jejunum, 8 hr) of the same compound?
Answer: The value was 0%.

Question: And the “% Dose recovered” value ([1]; 4. Jejunum, 10 hr)?
Answer: Its value is 0%.

Question: And the “% Dose recovered” value ([1]; 5. Jejunum, 2 hr)?
Answer: Its value is 0%.

Question: What about the “% Dose recovered” value ([1]; 5. Jejunum, 4 hr) of the same compound?
Answer: Its value is 0%.

Question: And the “% Dose recovered” value ([1]; 5. Jejunum, 6 hr)?
Answer: The value was 3.9%.

Question: What about the “% Dose recovered” value ([1]; 5. Jejunum, 8 hr) of the same compound?
Answer: The value was 0%.

Question: And the “% Dose recovered” value ([1]; 5. Jejunum, 10 hr)?
Answer: Its value is 0%.

Question: And the “% Dose recovered” value ([1]; 6. Ileum, 2 hr)?
Answer: The value was 0%.

Question: And the “% Dose recovered” value ([1]; 6. Ileum, 4 hr)?
Answer: Its value is 0%.

Question: And the “% Dose recovered” value ([1]; 6. Ileum, 6 hr)?
Answer: Its value is 0%.

Question: And the “% Dose recovered” value ([1]; 6. Ileum, 8 hr)?
Answer: Its value is 5.9%.

Question: What about the “% Dose recovered” value ([1]; 6. Ileum, 10 hr) of the same compound?
Answer: The value was 0%.

Question: And the “% Dose recovered” value ([1]; 7. Remaining Intestine, 2 hr)?
Answer: The value was 0%.

Question: And the “% Dose recovered” value ([1]; 7. Remaining Intestine, 4 hr)?
Answer: The value was 0%.

Question: What about the “% Dose recovered” value ([1]; 7. Remaining Intestine, 6 hr) of the same compound?
Answer: Its value is 0%.

Question: And the “% Dose recovered” value ([1]; 7. Remaining Intestine, 8 hr)?
Answer: The value was 0%.

Question: What about the “% Dose recovered” value ([1]; 7. Remaining Intestine, 10 hr) of the same compound?
Answer: Its value is 0%.

Question: And the “% recovered from stomach following oral administration” value ([1]; time not stated)?
Answer: The value was “more than 30%”.

Question: Which results are given for `Nc1nc2c(ncn2COCCO)c(=O)[nH]1` [Acyclovir]?
Answer: AUC (in vivo): 282 ± 28 ng·h/mL; Cmax (in vivo; 5 mg/kg): 53.1 ± 6.8 ng/mL; MRT (in vivo; 5 mg/kg): 5.4 ± 0.5 h; bioavailability (in vivo; 5 mg/kg): 100%; % Hemolysis (Erythrocytes): 10.2 ± 1.4%; Area under plasma concentration profile (AUC) [2]: 3307.5 ng·h/mL; Time to maximum plasma concentration (tmax) [2]: 1.4 h; bioavailability [3]: 10-20%; % drug released in first 1 hr [4]: 95.3±4.1%

Question: For `Cn1c(=O)c2[nH]cnc2n(C)c1=O` [theophylline], which bioavailability [3] is on record?
Answer: The bioavailability was 100%.

Source: patent US9622977B2, “Sustained release drug delivery system” (BIOPLUS LIFE SCIENCES PVT, LTD., priority 2008, dated 2017)
